Results published in ChEMBL document CHEMBL5608141, “Identification of compartment-specific drug sensitivities in CRC organoid-stroma co-cultures” (2024).
Where “and” joins values, the source holds several entries; their conditions need not be identical. Equal values may be shown once. Non-standard residues stand in square brackets, D forms with d. Residues, ends and D or L forms follow the SMILES beside them. Arg(Me) = CNC(=N)NCCC[C@H](N)C(=O)O; d4Pal = N[C@H](Cc1ccncc1)C(=O)O; azaGly = NNC(=O)O

Assays:
Format in all cases: functional, Homo sapiens
Design in all cases: dose or concentration left out as unconfirmed
Colon cancer organoid [1] = assay: Identification of compartment-specific drug sensitivities in O06 CRC organoid-stroma F06 CAF co-cultures. Organoid is transduced with Lucferase2-P2A-EGFP lentivirus, fibroblast with Renilla-dsRed lentivirus. Dual-Glo Luciferase assay is used to report viability data.
Colon cancer organoid [2] = assay: Identification of compartment-specific drug sensitivities in O14 CRC organoid-stroma F14 CAF co-cultures. Organoid is transduced with Lucferase2-P2A-EGFP lentivirus, fibroblast with Renilla-dsRed lentivirus. Dual-Glo Luciferase assay is used to report viability data.
Colon cancer organoid [3] = assay: Identification of compartment-specific drug sensitivities in O20 CRC organoid-stroma F20 CAF co-cultures. Organoid is transduced with Lucferase2-P2A-EGFP lentivirus, fibroblast with Renilla-dsRed lentivirus. Dual-Glo Luciferase assay is used to report viability data.
[4] = Transduced with Lucferase2-P2A-EGFP lentivirus
[5] = Transduced with Renilla-dsRed lentivirus

Compound	Cell Viability (Colon cancer organoid [1]; [4])	Cell Viability (Colon cancer organoid [1]; [5])	Cell Viability (Colon cancer organoid [2]; [4])	Cell Viability (Colon cancer organoid [2]; [5])	Cell Viability (Colon cancer organoid [3]; [4])	Cell Viability (Colon cancer organoid [3]; [5])
CCCc1cc(C)[nH]c(=O)c1CNC(=O)c1cc(-c2ccc(N3CCN(C(C)C)CC3)nc2)cc2c1cnn2C(C)C	81.1391%	118.175%	84.6561%	97.5786%	59.2451%	157.842%
N#CN1CC[C@H](C(=O)Nc2nc3c(s2)CN(C(=O)CN=[N+]=[N-])CC3)C1 [8RK64]	104.648%	104.354%	81.1298%	93.9024%	67.6209%	105.29%
C=CC(=O)Nc1ccc2[nH]c(=O)n(C3CCN(Cc4ccc(-c5ccc6c(c5)NC(=O)CO6)cc4)CC3)c2c1 [RL2578]	88.4189%	104.707%	83.2796%	87.8699%	101.642%	98.7435%
CO[C@H]1CNC[C@@H](OCC2CCC(F)(F)CC2)[C@@H]1Nc1ncc(-c2cncc(C)c2)c2cc(C)c(=O)[nH]c12	95.0954%	138.476%	145.9%	102.552%	171.771%	122.949%
CCn1cc(-c2cccc(C(F)(F)F)c2)c2sc(C(=N)NC3CCS(=O)(=O)CC3)cc2c1=O	95.4713%	165.165%	135.151%	119.275%	61.0963%	124.144%
C=CC(=O)N1CCC([C@@H]2CCNc3c(C(N)=O)c(-c4ccc(Oc5ccccc5)cc4)nn32)CC1 [ZANUBRUTINIB]	36.1998%	136.235%	25.5759%	117.13%	8.4337%	202.782%
CNC(=N)NCCC[C@H](NC(=O)[C@H](CC(C)C)NC(=O)NNC(=O)[C@H](Cc1ccccc1)NC(=O)[C@H](CO)NC(=O)[C@H](CC(N)=O)NC(=O)[C@@H](Cc1ccncc1)NC(=O)[C@H](N)Cc1ccc(O)cc1)C(=O)N[C@@H](Cc1ccccc1)C(N)=O [KISS1-305] (H-[dY][d4Pal]NSF[azaGly]L[Arg(Me)]F-NH2)	113.14%	104.585%	102.723%	96.9932%	118.72%	125.679%
Cc1cc(C)cc(C(=O)NOCCCCCC(=O)NO)c1	13.8956%	454.718%	50.2494%	170.815%	15.4081%	402.959%
COc1cc(-c2cn([C@H]3CCc4c(F)cccc4N(CC(F)(F)F)C3=O)nn2)ccc1-n1cnc(C)c1	62.2519%	94.2085%	128.088%	98.8677%	119.382%	109.286%
CC(=O)c1cc(-c2cc(C(=O)NC3CC3)ccc2C)c2ncccn12	95.4153%	118.795%	131.291%	101.161%	68.6867%	121.421%
CCCCNNC(=O)c1ccc(Br)cc1	113.204%	110.004%	96.2748%	91.9269%	131.97%	114.511%
Cl.Cn1cncc1[C@](O)(COc1ccc(C#N)cc1-c1ccc(OC(F)(F)F)cc1)c1ccc(C#N)cc1	46.0933%	149.066%	31.1337%	75.4889%	15.3114%	150.357%
CNc1cc(Oc2cc(C(=O)Nc3cc(N4CCN(C)CC4)cc(C(F)(F)F)c3)ccc2C)ncn1	72.9479%	75.3319%	198.58%	101.862%	163.613%	75.5289%
C[C@H](c1ccc(F)cc1)N(Cc1ccc(Cl)c(C(=O)O)c1)C(=O)c1cnc2ccccc2c1 [PF-05257137]	94.0157%	76.638%	108.547%	109.197%	147.232%	103.742%
CC1=C(C#N)C(c2ccc3[nH]nc(C)c3c2)C(C#N)=C(C)N1 [BAY-474]	116.723%	162.783%	60.4688%	119.272%	81.7867%	102.241%
CCCS(=O)(=O)c1nc(NC2CC2)cc(-c2ccc3c(ccn3C3CC(C)(C)NC(C)(C)C3)c2)n1	80.022% and 93.4216%	88.9327% and 142.491%	124.727% and 116.36%	92.6394% and 115.077%	91.7549% and 133.424%	94.2313% and 119.463%
COc1cc(-c2cn([C@H]3CCc4ccccc4N(CC(F)(F)F)C3=O)nn2)ccc1-n1ccc(C)n1	66.2416%	74.3796%	96.3015%	79.1491%	70.0794%	119.033%
CCN(CCO)CCCOc1ccc2c(Nc3cc(CC(=O)Nc4cccc(F)c4)[nH]n3)ncnc2c1 [DEFOSBARASERTIB]	9.138%	166.163%	12.9014%	101.396%	5.365%	225.013%
C[C@H](NC(=O)c1cnc2n1[C@](C)(Cc1ccc(C#N)cc1)C(=O)N2c1cc(Cl)c(F)c(Cl)c1)C(=O)NC1(c2ccccn2)CC1 [BI 1950]	112.036%	408.477%	98.1816%	100.374%	121.807%	97.0159%
C[C@@H]1CCN(C(=O)CC#N)C[C@@H]1N(C)c1ncnc2[nH]ccc12.O=C(O)CC(O)(CC(=O)O)C(=O)O [TOFACITINIB CITRATE]	105.115%	91.9737%	83.3835%	105.446%	113.321%	86.9545%
CCOc1ccn(-c2ccc(F)cc2)c(=O)c1C(=O)Nc1ccc(Oc2ccnc(N)c2Cl)c(F)c1 [BMS-777607]	91.8113%	94.0587%	88.1625%	100.395%	100.48%	72.8578%
CCCCN(Cc1ccccc1)C(=O)c1ccc(S(=O)(=O)Nc2ccccc2)cc1	68.2046%	126.816%	91.6685%	100.658%	74.981%	116.955%
CO[C@@H](C)c1c(Nc2ccc([C@H](N(C)C(=O)C3CCS(=O)(=O)CC3)C(F)(F)F)cc2)cnc2cc(Cl)nn12 [NVS-MALT1]	54.3511%	83.5282%	78.8073%	82.3583%	88.0389%	98.697%
Cc1c(Nc2ccc(S(=O)(=O)N3CCN(C)CC3)cc2F)nc2ccc(-c3cnn(C4CC4)c3)cn2c1=O	106.525%	138.146%	116.873%	77.7436%	100.446%	149.535%
COc1cc(Nc2ccnc3ccc(Br)cc23)cc(OC)c1OC	11.1317%	122.349%	56.2839%	83.5621%	3.207%	235.19%
Cl.Cl.Cl.c1ccc(N2CCN(Cc3nc4ccccc4[nH]3)CC2)nc1	46.7197%	192.419%	99.1029%	116.587%	41.4322%	124.541%
CNC(=O)c1cc(C(=O)NC2CC2)cn(Cc2ccccc2)c1=O [GSK620]	111.223%	132.009%	84.0371%	91.229%	93.0444%	100.747%
CN1CCN(c2ccnc(NCCc3ccccc3)n2)CC1 [TP-040n]	57.9985%	123.721%	106.261%	101.91%	67.1911%	97.5889%
O=C1[C@H](Cc2ccc(O)cc2)N2C(=O)CCN(C(=O)NCc3ccccc3)[C@H]2CN1Cc1cccc2ccccc12	79.2211%	124.216%	38.6094%	83.3915%	90.1159%	144.616%
CC1(C)C(N)=Nc2cc(OCCCN3Cc4ccc(OCCc5cn(CC(=O)N6CCC(CCN7CCCC7)CC6)nn5)cc4C3)c(OCC3CC3)cc21	85.8179%	109.54%	112.775%	105.217%	95.5615%	161.052%
